Laboratory results from US10034915B2, “Small heat shock proteins and active fragments thereof as a therapy for inflammation and ischemia” (The Board of Trustees of the Leland Stanford Junior …, priority 2011, dated 2018).
“Also recorded” adds a separate entry of the source.

What was measured:
[1] = tested on: splenocytes stimulated with anti-CD3/anti-CD28, concanavalin-A or LPS; assay: Splenocyte cytokine response at 7 d after stroke, Cryab−/− mice; type: in vivo, mouse; conditions: Cryab treated vs PBS treated Cryab−/− mice
Experimental: The effects of Cryab treatment on splenocytes isolated from PBS treated wild-type and Cryab^−/− mice and Cryab treated Cryab^−/− mice were assessed at 7 d after stroke. Splenocytes from PBS treated Cryab^−/− mice produced more pro-inflammatory IL-2, IL-17 and TNF when stimulated with anti-CD3/anti-CD28 than both PBS-treated wild-type mice and Cryab-treated Cryab^−/− mice splenocytes (FIG. 12e). When stimulated by concanavalin-A, splenocytes from PBS treated Cryab^−/− mice produced more pro-inflammatory IFN-γ, TNF, IL-12p40 and less anti-inflammatory IL-10 compared to the splenocytes from both PBS treated wild-type and Cryab treated Cryab^−/− mice (FIG. 12e). When stimulated with LPS, splenocytes from PBS treated Cryab^−/− mice produced more TNF and less IL-10 compared to the splenocytes from both PBS treated wild-type mice and Cryab treated Cryab^−/− mice (FIG. 12e).

EAE mice = assay: EAE in 129Sv WT mice immunized with MOG35-55/CFA, clinical scoring; type: in vivo, mouse; conditions: vs PBS
Experimental: To investigate if the therapeutic efficacy of HSPB5 is a common feature of the whole family of small heat shock proteins, we expressed recombinant HSPB1, HSPB4, and HSPB5. We then treated EAE mice every other day starting at the peak of disease, when clinical paralysis is apparent, with an intraperitoneal (IP) administration of 10 μg of either HSPB1, HSPB4, HSPB5, or PBS as the vehicle control. […] Treating mice in vivo with HSPB1, HSPB4, or HSPB5 led to a reduction in the production of pro-inflammatory cytokines by MOG stimulated splenocytes taken from MOG immunized mice (FIG. 1c). Improvement of the clinical score was dependent on continued dosing of the sHSP. After dosing was stopped, symptoms returned, and paralysis worsened after 96 hours.
Therapeutic Peptides from HSPB5 in EAE. […] We made a series of overlapping, 15-mer peptide fragments of HSPB5 and treated mice at the peak of disease with 10 μg of each peptide every other day, using HSPB5 as a positive control and PBS as a negative control.
EAE induction and scoring. Mice were immunized subcutaneously with 100 μL of myelin oligodendrocyte glycoprotein (MOG) peptide 35-55 (2 mg/mL) and Complete Freund's adjuvant (CFA) (4 mg/mL) on Day 0. […] Mice were randomized at the peak of disease into the treatment groups where they received 10 ug/200 μL of sHSP, 1 μg/200 uL of sHSP peptide, or 200 μL of PBS (vehicle) every other day. Mice were scored every day on a clinical scoring system: 0, healthy mouse; 1, limp tail; 2, weak hindlimbs; 3, complete hindlimb paralysis; 4, weak forelimbs and paralyzed hindlimbs; 5, dead.

stroke in wild-type mice = assay: Cerebral ischemia (30 min middle cerebral artery filament occlusion) in wild-type mice, lesion size; type: in vivo, mouse; conditions: vs PBS
Experimental: Because the restoration of plasma Cryab in Cryab^−/− mice decreased the lesion size, we next investigated whether administration of Cryab into wild-type mice would have a similar effect. When Cryab was administered beginning 1 h before stroke onset and then at 12 hrs after, the lesion size at 2 d was not different between PBS and Cryab treated wild-type mice groups (FIG. 14a).
Induction of cerebral ischemia. We used 12 to 14-week-old, male mice weighing 25-30 g. The weights of the animals in all experimental groups were similar. We used filament occlusion model of cerebral ischemia as described. Briefly, mice were anesthetized with 2% isoflurane in a mixture of 20% oxygen and 80% air. After the surgical exposure, the left external and common carotid arteries were permanently ligated. Then, a 7-0 mm, silicon rubber-coated, reusable monofilament (Doccol Inc, 70SPRe2045) was inserted into the left common carotid artery and advanced towards the left internal carotid artery 9-10 mm after the left carotid bifurcation. The core body temperature was checked by a rectal probe and maintained at 37° C. throughout the surgery by a heating pad and lamp. The cerebral blood flow was measured by a laser Doppler flow-meter and at least 80% reduction compared to presurgical baseline values was achieved after the insertion of the filament. The flowmeter probe was placed 2 mm posterior and 5-6 mm lateral to the bregma on the skull. The reperfusion was achieved by withdrawal of the filament 30 min after the insertion. After the closure of the surgical wound and the mice were returned to their cages with free access to water and food.

brain T cells = assay: Brain T cell populations at 7 d after stroke (flow cytometry), wild-type mice; type: in vivo, mouse; conditions: vs PBS
Experimental: The T cell populations in brain were analyzed at 7 d after stroke. […] However, when we quantitatively analyzed how many cytokine molecules existed per cell, we found fewer IL-17-PE molecules per CD3^+, CD4^+ and gd-T cells in Cryab-treated mice brains compared to PBS-treated ones (FIG. 15k, l).

[2] = tested on: pro-inflammatory cytokines of MOG stimulated splenocytes; assay: Peripheral immune cell activation: cytokine production by MOG stimulated splenocytes of treated MOG immunized mice (ELISA); set-up: species or system mouse; conditions: mice treated in vivo; splenocytes from MOG immunized mice
Experimental: Peripheral immune cell activation and cytokine analysis. Spleens and lymph nodes were isolated from mice 9 days after immunization with MOG35-55 and CFA. Spleens were mechanically disrupted to isolate single cell splencytes suspension. Cells were cultured in flat bottomed, 96-well plates in media (RPMI 1640 supplemented with […] L-glutamine, 1 mM sodium pyruvate, 0.1 mM non-essential amino acids, 100 U/mL penicillin, 0.1 mg/mL streptomycin, 0.5 uM 2-mercaptoethanol, and 10% fetal calf serum). Cells were stimulated with MOG35-55 (5 ug/mL, 10 ug/mL, and 20 ug/mL). For all activation assays, splenocytes were pooled from three mice per group and triplicate wells were plated. Supernatants of cells were collected at the time of peak production for each cytokine (48 hrs: IL-2, IL-12p40, IL-6; 72 hrs: TNFα and IFNγ; 96 hrs: IL-17; 120 hrs: IL-10). Cytokines were measured in the supernatants using anti-mouse OPTEIA ELISA kits (BD Pharmingen for IFNγ, IL-10, IL-2, IL-6, and IL-12p40; R&D Systems for IL-17 and TNFα).

HSPB5−/− EAE mice = conditions: WT and HSPB5 deficient mice; previously published data; cited from earlier work

αB-crystallin [HSPB5]
peripheral inflammatory response (splenocyte cytokines) [1]: modulates the peripheral inflammatory response | EAE clinical scores over the course of the whole experiment (area under the curve) (EAE mice; 10 μg sHSP protein IP every other day from peak of disease): significantly improved | clinical paralysis / EAE clinical scores (EAE mice; 10 μg sHSP protein IP every other day starting at the peak of disease): significantly ameliorated clinical paralysis; also recorded: therapeutic | blood pressure, pulse rate, plasma glucose and lactate levels and arterial blood gas analysis (stroke in wild-type mice; before, during or after cerebral ischemia): no differences | lesion size at 2 d after stroke (TTC staining) (stroke in wild-type mice; wild-type mice, given 1 h before stroke onset and 12 hrs after): not different | lesion size at 7 d after stroke (silver stain) (stroke in wild-type mice; wild-type mice, given 1 h before, 12 h, 24 h after and daily for seven days): significantly reduced | lesion size at 7 d after stroke (silver stain) (stroke in wild-type mice; wild-type mice, initial treatment 12 h after stroke onset, listed as Cryab): reduced stroke pathology; also recorded: conferred neuroprotection | IL-17-PE molecules per CD3+, CD4+ and gd-T cells (brain T cells; brain): fewer | number of IFN-g-PE molecules per CD3+ or CD4+ cells (brain T cells; brain): no differences | percentages of IFN-g+ cells among CD3+ or CD4+ cells (brain T cells; brain): no differences | percentages of IL-17+ cells among CD3+, CD4+ or gd-T cells (brain T cells; brain): no differences | total number of the brain CD3+, CD4+, CD8+ and gd-T cells (brain T cells): did not change | production of pro-inflammatory cytokines by MOG stimulated splenocytes [2]: reduction | treatment of EAE by full-length protein (HSPB5−/− EAE mice): able to treat not only WT mice, but also HSPB5 deficient mice
